Measurements published in US20140050778A1, “NUCLEIC ACID BINDING COMPOUNDS, METHODS OF MAKING, AND USE THEREOF” (UNIVERSITY OF ROCHESTER, priority 2010, published 2014).

Experiments:
human fibroblasts = assay: MTT toxicity assay; type: cell-based; conditions: compounds 4 and 5 measured as a mixture, concentrations up to 500 μM
Description: For toxicity studies, mouse myoblasts or human fibroblasts were plated in a 96-well tissue culture plate in DMEM (10% fetal bovine serum, 100 units/ml penicillin, […]) and allowed to grow to approximately 80% confluence at 37° C. under CO2. Varying compound concentrations (up to 1 mM) were incubated with cells (48 hours, 37° C.). Media was then removed, and 3-(4,5-dimethylthiazol-2-yl)-2,5-diphenyltetrazolium bromide (“MTT”) in media was added to each well and incubated at 37° C. for 4 h. After removal of the MTT media, isopropanol (100 pp was added, and absorbance was measured at 600 nm on a Modulus microplate reader (Turner Biosystems).
SPR and fluorescence titration experiments, performed using the protocol described in Examples 3 and 4 above, except using as the target a highly conserved RNA sequence responsible for regulating the production of the Gag-Pol polyprotein via a −1 ribosomal frameshift, which occurs along a “slippery sequence” in gag-pol mRNA (SEQ ID NO: 7). This “frameshift stimulatory sequence” (or “HIV-1 FSS”) consists of an upper stemloop and a lower stem, separated by a purine bulge in the most common types of HIV (FIG. 19). For the fluorescent titration experiments, the upper stemloop of SEQ ID NO: 7 was employed. Cell uptake and toxicity studies were carried out using human fibroblasts according to Example 5 above.

[1] = tested on: (CUG)2 RNA (SEQ ID NO: 1); assay: SPR binding to immobilized biotinylated RNA; conditions: for Off-rates (koff) / On-rates (kon): SPR; for ka / kd: Table 7, SPR

| SMILES | toxicity (MTT) (human fibroblasts) | Residence time (t1/2) for compound binding to RNA [1] [min] | Off-rates (koff) [1] [s⁻¹] | On-rates (kon) [1] [M⁻¹ s⁻¹] | ka [1] | kd [1] |
| --- | --- | --- | --- | --- | --- | --- |
| CCc1nc2cc3ccccc3cc2cc1C(=O)N1CCC[C@H]1C(=O)N[C@@H](C/C=C\C[C@H](NC(=O)[C@@H]1CCCN1C(=O)c1cc2cc3ccccc3cc2nc1CC)C(=O)N[C@@H](CCCCN)C(=O)NCCCN)C(=O)N[C@@H](CCCCN)C(=O)NCCCN [Compound 4] | no significant toxicity | 13.08 | 0.000883 | 24500 | ka = 2.45E+4/M * s | kd = 8.83E−4/s |
| CCc1nc2cc3ccccc3cc2cc1C(=O)N1CCC[C@H]1C(=O)N[C@@H](C/C=C/C[C@H](NC(=O)[C@@H]1CCCN1C(=O)c1cc2cc3ccccc3cc2nc1CC)C(=O)N[C@@H](CCCCN)C(=O)NCCCN)C(=O)N[C@@H](CCCCN)C(=O)NCCCN [Compound 5] | no significant toxicity | 15.02 | 0.000769 | 20100 | ka = 2.01E+4/M * s | kd = 7.69E−4/s |
